Test results taken from paper PMC8242268, “Transcriptomic and Proteomic Analysis of Mannitol-metabolism-associated Genes in Saccharina japonica” (Genomics, Proteomics & Bioinformatics, 2020).

How the values were obtained:
[1] = molecular target: T1, SjaM1PDH2 (Saccharina japonica, UniProt A0A2Z4BWZ7); experiment: F6P reduction kinetics, Lineweaver-Burk; assay type: biochemical; conditions: apparent; co-substrate NADH
T1 construct: codon-optimized synthetic gene, pET32a (EcoRI/NotI), E. coli BL21(DE3), His-resin purified
T1 sequence (A0A2Z4BWZ7 1-355): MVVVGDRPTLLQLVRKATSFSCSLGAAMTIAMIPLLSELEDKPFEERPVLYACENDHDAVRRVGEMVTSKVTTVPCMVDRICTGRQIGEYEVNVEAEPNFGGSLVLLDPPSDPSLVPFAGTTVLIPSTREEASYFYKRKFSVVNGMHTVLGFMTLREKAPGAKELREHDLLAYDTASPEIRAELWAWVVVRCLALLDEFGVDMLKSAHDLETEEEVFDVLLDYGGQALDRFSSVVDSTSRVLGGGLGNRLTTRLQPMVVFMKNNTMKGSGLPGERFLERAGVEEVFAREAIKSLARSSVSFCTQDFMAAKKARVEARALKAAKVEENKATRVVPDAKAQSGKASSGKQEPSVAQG

[2] = molecular target: T2, SjaM1Pase2 (Saccharina japonica, UniProt A0A2Z4BXC0); experiment: M1P phosphatase kinetics, Lineweaver-Burk; assay type: biochemical; conditions: apparent; 100 mM Tris-HCl buffer
T2 construct: codon-optimized synthetic gene, pGEX-6p-1 (EcoRI/NotI), E. coli BL21(DE3), GST-resin purified
T2 sequence (A0A2Z4BXC0 1-327): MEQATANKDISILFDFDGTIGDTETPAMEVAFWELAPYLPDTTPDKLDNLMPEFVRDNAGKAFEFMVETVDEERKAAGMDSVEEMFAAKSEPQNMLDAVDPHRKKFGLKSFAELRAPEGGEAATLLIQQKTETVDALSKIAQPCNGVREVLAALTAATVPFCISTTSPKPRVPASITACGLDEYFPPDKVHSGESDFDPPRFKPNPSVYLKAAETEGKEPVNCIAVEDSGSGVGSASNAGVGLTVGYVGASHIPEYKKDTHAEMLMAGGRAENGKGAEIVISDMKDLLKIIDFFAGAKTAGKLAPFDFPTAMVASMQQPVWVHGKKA

Row | Structure (SMILES) | Km [1] | Km [2]
1 | O=P(O)(O)OC[C@H]1OC(O)(CO)[C@@H](O)[C@@H]1O (some centres unmarked) [F6P] | 2.02 mM | –
2 | O=P(O)(O)OC[C@@H](O)[C@@H](O)[C@H](O)[C@H](O)CO [M1P] | – | 20 µM
